Each structure is given as a SMILES string.

From PMC9820316, “Novel Arylpiperazine Derivatives of Salicylamide with α1-Adrenolytic Properties Showed Antiarrhythmic and Hypotensive Properties in Rats” (International Journal of Molecular Sciences, 2022) come the findings set out here.

For one series, the target named is α2-adrenergic receptors. The series is described as follows: α2-adrenoceptor radioligand binding assay ([3H]-clonidine, rat cortex). The note with it: rat cortex tissue, mean ± SEM, n.a. = did not bind at 10^−5 M. The procedure: (§1) The α1- and α2-adrenoceptor radioligand binding assays were performed on the rat cerebral cortex using previously described methods. […] The brains were homogenized using the ULTRA-TURRAX homogenizer in 10 mL of an ice-cold 50 mM Tris-HCl buffer (pH 7.6). The homogenates were centrifuged at 20,000× g for 20 min (0–4 °C). Subsequently, the cell pellet was resuspended in the Tris–HCl buffer and centrifuged again. Radioligand binding assays were carried out in plates (MultiScreen/Millipore). The final incubation mixture, with a volume of 300 μL, consisted of 240 μL of the tissue suspension, 30 μL of the radioligand solution, and 30 μL of the buffer containing 7–8 concentrations of the studied compounds. In order to measure the unspecific binding, 10 μM phentolamine (for [^3H]-prazosin) or 10 μM clonidine (for [^3H]-clonidine) were utilized. The incubation was completed by rapid filtration through Whatman GF/C filters using a vacuum manifold (Millipore). The filters were then washed twice with the assay buffer and placed in scintillation vials with a liquid scintillation cocktail. Radioactivity was measured in a WALLAC 1409 DSA liquid scintillation counter (Perkin Elmer, USA). All the assays were performed in duplicates, and the inhibitory constants (Ki) were calculated.

The test system of series [1] is pressor response to methoxamine in rats. The series is described as follows: Influence on blood vasopressor response to methoxamine in rats. The series is classed as in vivo, rat. The note with it: 5 mg/kg iv, methoxamine 150 μg/kg before and 5 min after compound. How it is done:
The experiment was performed to establish the effect of the studied derivatives on the pressor response to methoxamine (150 µg/kg, iv), according to the methods described previously. Normotensive Wistar rats were anesthetized with thiopental (75 mg/kg ip). The right carotid artery was cannulated with a polyethylene tube filled with heparin solution using a Datamax apparatus (Columbus Instruments, Columbus, OH, USA). After a 15-min stabilization period, the pressor response to methoxamine before (control) and 5 min after the administration of the tested compounds was measured (Figure 4B). The tested compounds were administered at the lowest hypotensive dose.

For series [2], the system named is adrenaline-induced arrhythmia model in rats. The series is described as follows: Therapeutic antiarrhythmic activity in adrenaline-induced arrhythmia. The note with it: 1 mg/kg iv immediately after adrenaline 20 µg/kg; number of animals with event.
Procedure: The experiments were carried out according to the method described by Szekeres and Papp [71]. The heart rhythm disturbances, such as extrasystoles, conduction blocks, and bradycardia, were induced by iv injection of adrenaline (20 µg/kg) to anesthetized rats (thiopental, 75 mg/kg, ip). […] The Aspel ASCARD apparatus (standard II lead, with a tape of speed 50 mm/s and voltage calibration of 1 mV = 1 cm) was used for the ECG measurements. The ECG was recorded during the first 2 min and in the 5th, 10th, and 15th min after the adrenaline injection (Figure 3B). The lack or decreased amount of extrasystoles, atrioventricular blocks, and bradycardia in the ECG recordings compared to the control group was the criterion of antiarrhythmic activity [72].
Automated ECG waveform analysis was evaluated as described earlier [55], using Eleven Maze software version 0.1 from Eleven Products Sp. z o.o. […] The software, under expert supervision, recognized and classified the heart rhythm irregularities. It also calculated PQ, QRS, QTc, and rate parameters.
The target of another series is α1-adrenergic receptors. The experiment in a line: α1-adrenoceptor radioligand binding assay ([3H]-prazosin, rat cortex). The note with it: rat cortex tissue, mean ± SEM. How it is done:
as §1

Series [3] relates to aconitine-induced arrhythmia model in rats. The experiment in a line: Prophylactic antiarrhythmic activity in aconitine-induced arrhythmia. It is filed as in vivo, rat. The note with it: 5 mg/kg iv 15 min before aconitine 20 μg/kg; number of animals with event. How it is done: (§2) The animals were anesthetized with thiopental (75 mg/kg ip). Depending on the model, either adrenaline, aconitine, or calcium chloride was used as an arrhythmogen. Adrenaline and aconitine were administered iv at a dose of 20 µg/kg, whereas calcium chloride was administered at a dose of 140 mg/kg to induce heart rhythm disturbances. The tested compounds were injected iv 15 min before the arrhythmogen. Aspel ASCARD apparatus (standard II lead, with the tape speed 50 mm/s and voltage calibration 1 mV = 1 cm) was used for ECG measurements. […] The ED50 was calculated using the method of Litchfield and Wilcoxon.

The test system of series [4] is adrenaline-induced arrhythmia model in rats. The experiment in a line: Prophylactic antiarrhythmic activity in adrenaline-induced arrhythmia. It is filed as in vivo, rat. The note with it: for Blocks / Bradycardia / Extrasystoles / Mortality: number of animals with event. The procedure: as §2
For another series, the system named is normal ECG in rats. The series is described as follows: Effect on a normal electrocardiogram in rats. The series is classed as in vivo, rat. The note with it: 5 mg/kg iv; for HR—heart rate / PQ interval / QRS complex / QTc (Bazzett's formula): mean ± SD; for PQ interval / QRS complex / QTc (Bazzett's formula): in ms (unit assumed). The procedure: The procedure was performed to exclude the negative effects of the tested compounds on the normal ECG, according to the method described earlier. […] Firstly, animals were anesthetized with thiopental (75 mg/kg ip). […] The influence on PQ, QTc interval, QRS complex, and heart rate was evaluated. The Bazzett’s formula: QTc = QT/√RR was used to calculate QTc. All the studied compounds were administered at a dose of 5 mg/kg.

The test system of series [5] is calcium chloride-induced arrhythmia model in rats. The series is described as follows: Prophylactic antiarrhythmic activity in calcium chloride-induced arrhythmia. It is filed as in vivo, rat. The note with it: 5 mg/kg iv 15 min before calcium chloride 140 mg/kg; number of animals with event. The procedure: as §2
[6] abbreviates: 0.02 mg/kg iv 15 min before adrenaline 20 μg/kg.
[7] abbreviates: 0.05 mg/kg iv 15 min before adrenaline 20 μg/kg.
Where [8] appears, read: 0.1 mg/kg iv 15 min before adrenaline 20 μg/kg.
Setting [9] is: 0 min (prior to administration).

As for `Clc1cccc(Cl)c1N=C1NCCN1` [Clonidine, clonidine, reference compound], at α2-adrenergic receptors, the “Adrenergic Receptors—pKi α2” value is 8.30 ± 0.01.

For the compound `COc1ccccc1N1CCN(CCCCOc2ccccc2C(N)=O)CC1.Cl` [JJGW07, 2-{4-[4-(2-metoxyphenyl)piperazin-1-ylo]butoxy}benzamide hydrochloride], in series [1], the “attenuation of the methoxamine pressor response” value came to 100%. The Blocks in series [2] is recorded as 2/5; in series [3], 6/6; in series [4] (setting [6]) it was 6/6; in series [4] (setting [7]), 4/6; in series [4] (setting [8]), 3/6; in series [5], 6/6. The Bradycardia in series [2] is recorded as 1/5; in series [3], 6/6; in series [4] (setting [6]), 6/6; in series [4] (setting [7]) it was 4/6; in series [4] (setting [8]), 3/6; in series [5] it was 6/6. Also, the Mortality is reported as 0/5 in series [2]; 6/6 in series [3]; 3/6 in series [4] (setting [6]); 0/6 in series [4] (setting [7]); 0/6 in series [4] (setting [8]); 6/6 in series [5]. For the same compound, the “Adrenergic Receptors—pKi α1” value on α1-adrenergic receptors is given as 7.85 ± 0.01. The Extrasystoles in series [3] is on record as 6/6; in series [4] (setting [6]), 5/6; in series [4] (setting [7]) it was 5/6; in series [4] (setting [8]), 4/6; in series [5] it was 6/6. The Fibrillations in series [3] and in series [5] was 6/6 each time. In addition, the “ED50 value lower than that of carvedilol” value in series [4] (adrenaline-induced arrhythmia, prophylactic, carvedilol ref 62) is 9 fold. Also, in series [4] (prophylactic, iv 15 min before adrenaline 20 μg/kg, confidence limits in brackets (Litchfield and Wilcoxon)), the ED50 is 0.04 (0.01–0.15) mg/kg. Moreover, the “effect on the heart rate during the ECG recording” value in the series with normal ECG in rats is “did not affect the heart rate”. In addition, the “HR—heart rate” value with normal ECG in rats (setting [9]) came to 328.7 ± 9.3; in the series on normal ECG in rats (5 min), 341.2 ± 11.5; in the series with normal ECG in rats (10 min) it was 333.2 ± 20.9; in the series with normal ECG in rats (15 min) it was 336.3 ± 20.9. Moreover, the PQ interval is recorded as 40.7 ± 2.1 in the series on normal ECG in rats (setting [9]), 40.0 ± 2.2 in the series on normal ECG in rats (5 min), 40.7 ± 3.7 in the series on normal ECG in rats (10 min) and 40.7 ± 1.6 with normal ECG in rats (15 min). For the same compound, the QRS complex worked out at 47.0 ± 6.3 in the series with normal ECG in rats (setting [9]), 49.7 ± 7.9 in the series with normal ECG in rats (5 min), 48.7 ± 7.2 with normal ECG in rats (10 min) and 48.7 ± 9.2 with normal ECG in rats (15 min). In addition, the “QTc (Bazzett's formula)” value is listed as 196.5 ± 8.0 in the series with normal ECG in rats (setting [9]), 190.8 ± 4.2 in the series on normal ECG in rats (5 min), 196.3 ± 9.5 in the series with normal ECG in rats (10 min) and 192.4 ± 7.5 in the series on normal ECG in rats (15 min).

Regarding `Cc1ccc(N(CC2=NCCN2)c2cccc(O)c2)cc1` [Phentolamine, phentolamine, reference compound], on α1-adrenergic receptors, the “Adrenergic Receptors—pKi α1” value was 8.05 ± 0.01.
